Active and inactive are the calls of the source. The calls are words filed in the database; no cut-off is given here.
Columns and labels:
BMMC [1] = assay: Inhibition of M-CSF/RANKL-induced osteoclast differentiation in C57BL/6 mouse BMMC assessed as decrease in multinucleated TRAP+ cells after 3 days by TRAP staining-based assay; format: functional, cell-based
BMMC [2] = assay: Inhibition of M-CSF/RANKL-induced osteoclast differentiation in C57BL/6 mouse BMMC assessed as decrease in multinucleated TRAP+ cells at 20 uM after 3 days by TRAP staining-based assay; format: functional, cell-based
BMMC [3] = assay: Cytotoxicity against C57BL/6 mouse BMMC at 5 to 20 uM after 3 days in presence of M-CSF/RANKL by MTT assay; format: cell-based; details: 72 h
BMMC [4] = assay: Reduction in M-CSF/RANKL-induced NFATc1 mRNA levels in C57BL/6 mouse BMMC at 20 uM after 3 days by RT-qPCR analysis; format: functional, cell-based
BMMC [5] = assay: Reduction in M-CSF/RANKL-induced Trap/Acp5 mRNA levels in C57BL/6 mouse BMMC at 20 uM after 3 days by RT-qPCR analysis; format: functional, cell-based
BMMC [6] = assay: Reduction in M-CSF/RANKL-induced Itgb3 mRNA levels in C57BL/6 mouse BMMC at 20 uM after 3 days by RT-qPCR analysis; format: functional, cell-based
BMMC [7] = assay: Reduction in M-CSF/RANKL-induced V-ATPase mRNA levels in C57BL/6 mouse BMMC at 20 uM after 3 days by RT-qPCR analysis; format: functional, cell-based
BMMC [8] = assay: Reduction in M-CSF/RANKL-induced Ctsk mRNA levels in C57BL/6 mouse BMMC at 20 uM after 3 days by RT-qPCR analysis; format: functional, cell-based
BMMC [9] = assay: Reduction in M-CSF/RANKL-induced MMP-9 mRNA levels in C57BL/6 mouse BMMC at 20 uM after 3 days by RT-qPCR analysis; format: functional, cell-based
BMMC [10] = assay: Downregulation of M-CSF/RANKL-induced NFATc1 protein expression levels in C57BL/6 mouse BMMC after 3 days by Western blot analysis; format: functional, cell-based
BMMC [11] = assay: Downregulation of M-CSF/RANKL-induced integrin alphaV protein expression levels in C57BL/6 mouse BMMC at 20 uM after 3 days by Western blot analysis; format: functional, cell-based
BMMC [12] = assay: Downregulation of M-CSF/RANKL-induced CTSK protein expression levels in C57BL/6 mouse BMMC at 20 uM after 3 days by Western blot analysis; format: functional, cell-based
[13] = target: Matrix metalloproteinase-9 (Mus musculus) (UniProt P41245); assay: Inhibition of MMP9 activity in C57BL/6 mouse BMMC at 5 to 20 uM by coomassie blue staining-based gelatin zymography assay; format: cell-based
BMMC [14] = assay: Inhibition of M-CSF/RANKL-induced matrix resorption capacity in C57BL/6 mouse BMMC at 10 to 20 uM after 4 days in hydroxyapatite-coated plates; format: functional, cell-based
Mus musculus [15] = assay: Antiperiodontitic activity in BALB/c mouse model of Porphyromonas gingivalis-induced periodontitis assessed as reduction in alveolar bone resorption at 100 ug/kg, id dosed once in 2 days for 30 days; format: functional, organism-based
Mus musculus [16] = assay: Antiperiodontitic activity in BALB/c mouse model of Porphyromonas gingivalis-induced periodontitis assessed as reduction in maxillary tissue Trap/Acp5 mRNA levels at 100 ug/kg, id dosed once in 2 days for 30 days; format: functional, organism-based
Mus musculus [17] = assay: Antiperiodontitic activity in BALB/c mouse model of Porphyromonas gingivalis-induced periodontitis assessed as reduction in maxillary tissue CtsK mRNA levels at 100 ug/kg, id dosed once in 2 days for 30 days; format: functional, organism-based
Mus musculus [18] = assay: Antiperiodontitic activity in BALB/c mouse model of Porphyromonas gingivalis-induced periodontitis assessed as reduction in maxillary tissue Mmp9 mRNA levels at 100 ug/kg, id dosed once in 2 days for 30 days; format: functional, organism-based

Chain of Matrix metalloproteinase-9 (Mus musculus) (P41245 whole entry): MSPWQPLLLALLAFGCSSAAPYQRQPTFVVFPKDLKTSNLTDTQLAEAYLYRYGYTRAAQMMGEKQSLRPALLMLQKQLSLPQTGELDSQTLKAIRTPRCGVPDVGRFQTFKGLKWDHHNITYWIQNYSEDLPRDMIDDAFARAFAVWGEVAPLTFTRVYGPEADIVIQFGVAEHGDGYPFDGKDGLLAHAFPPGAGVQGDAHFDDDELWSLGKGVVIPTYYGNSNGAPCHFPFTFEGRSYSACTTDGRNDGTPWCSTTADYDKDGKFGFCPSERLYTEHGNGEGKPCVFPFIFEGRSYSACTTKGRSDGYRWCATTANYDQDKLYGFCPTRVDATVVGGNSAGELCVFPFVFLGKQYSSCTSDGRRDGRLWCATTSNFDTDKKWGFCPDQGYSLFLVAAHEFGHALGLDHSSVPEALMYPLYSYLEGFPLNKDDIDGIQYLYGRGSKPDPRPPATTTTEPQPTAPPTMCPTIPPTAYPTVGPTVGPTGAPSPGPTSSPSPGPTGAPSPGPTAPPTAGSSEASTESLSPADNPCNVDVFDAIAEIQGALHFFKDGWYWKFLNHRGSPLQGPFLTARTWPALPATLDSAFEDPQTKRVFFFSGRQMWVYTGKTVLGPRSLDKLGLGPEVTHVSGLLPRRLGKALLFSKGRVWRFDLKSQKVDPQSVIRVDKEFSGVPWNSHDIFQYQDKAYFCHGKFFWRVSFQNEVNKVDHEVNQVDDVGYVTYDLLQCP

Q: `CC(C)=CCc1c(O)c(C(=O)CC(C)COC(=O)/C=C/c2ccccc2)c(O)c2c(-c3ccccc3)cc(=O)oc12` (stereo not drawn) was tested. Which inhibition (BMMC [1]) did it give?
A: Dose-dependent effect

Q: And the inhibition (BMMC [2])?
A: Active

Q: And the Activity (BMMC [3])?
A: Non-Toxic

Q: What about the Activity (BMMC [4]) of the same compound?
A: Active

Q: What about the Activity (BMMC [5]) of the same compound?
A: Active

Q: What about the Activity (BMMC [6]) of the same compound?
A: Active

Q: What about the Activity (BMMC [7]) of the same compound?
A: Active

Q: And the Activity (BMMC [8])?
A: Active

Q: What about the Activity (BMMC [9]) of the same compound?
A: Active

Q: What about the Activity (BMMC [10]) of the same compound?
A: Dose-dependent effect

Q: And the Activity (BMMC [11])?
A: Active

Q: What about the Activity (BMMC [12]) of the same compound?
A: Active

Q: What about the inhibition [13] of the same compound?
A: Active

Q: And the inhibition (BMMC [14])?
A: Active

Q: What about the Activity (Mus musculus [15]) of the same compound?
A: Active

Q: What about the Activity (Mus musculus [16]) of the same compound?
A: Active

Q: What about the Activity (Mus musculus [17]) of the same compound?
A: Active

Q: And the Activity (Mus musculus [18])?
A: inactive
